Reference: the NIST ThermoML archive (doi:10.1021/je0340755)
± gives the expanded uncertainty stated by the source.

Assay: xn = mol fraction of the nth substance listed
Settings: 101.3 kPa, Liquid; for viscosity: Capillary tube (Ostwald / Ubbelohde) method

CC(O)CO (stereo not given) [1,2-propanediol] + O
Settings | mass density, 318.15 K [kg/m3] | mass density, 328.15 K [kg/m3] | mass density, 338.15 K [kg/m3] | speed of sound, 318.15 K [m/s] | speed of sound, 328.15 K [m/s] | speed of sound, 338.15 K [m/s] | viscosity, 328.15 K [mPa·s] | viscosity, 338.15 K [mPa·s]
x2 = 0.044 | – | 1010.15 ± 0.37 | 1002.38 ± 0.35 | – | 1414.3 ± 6 | 1395.8 ± 5.9 | 9.223 ± 0.078 | 6.72 ± 0.072
x2 = 0.0987 | – | 1010.89 ± 0.37 | 1003.08 ± 0.35 | – | 1421.8 ± 6 | 1403.2 ± 5.9 | 8.612 ± 0.076 | 6.302 ± 0.071
x2 = 0.1484 | – | 1011.57 ± 0.36 | 1003.72 ± 0.34 | – | 1426.6 ± 6 | 1408.2 ± 5.9 | 8.046 ± 0.075 | 5.915 ± 0.07
x2 = 0.2498 | – | 1012.99 ± 0.35 | 1005.08 ± 0.33 | – | 1440.5 ± 6 | 1422.2 ± 6 | 6.905 ± 0.072 | 5.133 ± 0.069
x2 = 0.3494 | – | 1014.43 ± 0.35 | 1006.46 ± 0.32 | – | 1460.2 ± 6.1 | 1441.9 ± 6 | 5.842 ± 0.07 | 4.398 ± 0.067
x2 = 0.4494 | – | 1015.82 ± 0.34 | 1007.81 ± 0.32 | – | 1486.4 ± 6.2 | 1468 ± 6.1 | 4.844 ± 0.068 | 3.698 ± 0.066
x2 = 0.5029 | – | 1016.47 ± 0.34 | 1008.45 ± 0.31 | – | 1504.2 ± 6.2 | 1485.6 ± 6.2 | 4.335 ± 0.067 | 3.337 ± 0.065
x2 = 0.5499 | – | 1016.94 ± 0.33 | 1008.91 ± 0.31 | 1555.5 ± 6.4 | 1522.6 ± 6.3 | 1503.8 ± 6.2 | 3.901 ± 0.066 | 3.027 ± 0.065
x2 = 0.5597 | 1024.96 ± 0.36 | 1017.01 ± 0.33 | 1008.99 ± 0.31 | 1559.6 ± 6.4 | 1526.7 ± 6.3 | 1507.9 ± 6.2 | 3.811 ± 0.066 | 2.961 ± 0.065
x2 = 0.6501 | 1025.1 ± 0.35 | 1017.26 ± 0.33 | 1009.3 ± 0.3 | 1599.9 ± 6.5 | 1568.3 ± 6.4 | 1549 ± 6.4 | 3.002 ± 0.065 | 2.378 ± 0.064
x2 = 0.7499 | 1023.4 ± 0.34 | 1015.84 ± 0.31 | 1008.09 ± 0.29 | 1637.6 ± 6.6 | 1609.2 ± 6.5 | 1590.8 ± 6.5 | 2.147 ± 0.064 | 1.75 ± 0.064
x2 = 0.85 | 1017.63 ± 0.31 | 1010.71 ± 0.29 | 1003.47 ± 0.27 | 1637.9 ± 6.6 | 1617.9 ± 6.6 | 1604.3 ± 6.5 | 1.36 ± 0.063 | 1.156 ± 0.063
x2 = 0.9003 | 1011.96 ± 0.29 | 1005.57 ± 0.28 | 998.8 ± 0.26 | 1615 ± 6.6 | 1602.5 ± 6.5 | 1593.6 ± 6.5 | 1.012 ± 0.063 | 0.882 ± 0.063
x2 = 0.9115 | 1010.33 ± 0.29 | 1004.09 ± 0.27 | 997.45 ± 0.27 | 1607.7 ± 6.5 | 1597.2 ± 6.5 | 1589.7 ± 6.5 | 0.942 ± 0.063 | 0.825 ± 0.063
x2 = 0.9154 | 1009.72 ± 0.29 | 1003.54 ± 0.27 | 996.94 ± 0.27 | 1605 ± 6.5 | 1595.2 ± 6.5 | 1588.2 ± 6.5 | 0.917 ± 0.063 | 0.806 ± 0.063
x2 = 0.927 | 1007.79 ± 0.28 | 1001.78 ± 0.26 | 995.33 ± 0.27 | 1596.5 ± 6.5 | 1589 ± 6.5 | 1583.5 ± 6.5 | 0.848 ± 0.063 | 0.749 ± 0.063
x2 = 0.9367 | 1006.03 ± 0.27 | 1000.17 ± 0.26 | 993.86 ± 0.28 | 1589 ± 6.5 | 1583.4 ± 6.5 | 1579.2 ± 6.4 | 0.793 ± 0.063 | 0.702 ± 0.063
x2 = 0.9504 | 1003.28 ± 0.27 | 997.67 ± 0.26 | 991.56 ± 0.28 | 1577.7 ± 6.4 | 1575.1 ± 6.4 | 1572.9 ± 6.4 | 0.72 ± 0.063 | 0.639 ± 0.063
x2 = 0.9551 | 1002.26 ± 0.26 | 996.73 ± 0.27 | 990.71 ± 0.28 | 1573.6 ± 6.4 | 1572.2 ± 6.4 | 1570.7 ± 6.4 | 0.695 ± 0.063 | 0.618 ± 0.063
x2 = 0.96 | 1001.16 ± 0.26 | 995.72 ± 0.27 | 989.78 ± 0.29 | 1569.4 ± 6.4 | 1569.1 ± 6.4 | 1568.4 ± 6.4 | 0.672 ± 0.063 | 0.597 ± 0.063
x2 = 0.9696 | 998.86 ± 0.26 | 993.62 ± 0.27 | 987.84 ± 0.29 | 1561 ± 6.4 | 1563.1 ± 6.4 | 1563.8 ± 6.4 | 0.627 ± 0.063 | 0.556 ± 0.063
x2 = 0.9797 | 996.22 ± 0.27 | 991.21 ± 0.28 | 985.63 ± 0.3 | 1552.2 ± 6.4 | 1556.8 ± 6.4 | 1559.2 ± 6.4 | 0.582 ± 0.063 | 0.515 ± 0.063
x2 = 0.9902 | 993.24 ± 0.27 | 988.47 ± 0.29 | 983.11 ± 0.31 | 1543.1 ± 6.3 | 1550.5 ± 6.4 | 1554.7 ± 6.4 | 0.539 ± 0.063 | 0.474 ± 0.063
x2 = 0.9923 | 992.61 ± 0.28 | 987.9 ± 0.29 | 982.58 ± 0.31 | 1541.4 ± 6.3 | 1549.3 ± 6.4 | 1553.9 ± 6.4 | 0.531 ± 0.063 | 0.466 ± 0.063
x2 = 0.9948 | 991.85 ± 0.28 | 987.19 ± 0.29 | 981.93 ± 0.31 | 1539.3 ± 6.3 | 1547.8 ± 6.3 | 1552.9 ± 6.4 | 0.521 ± 0.063 | 0.457 ± 0.063
